Legend:
[1] = test system: Polθ foci formation in RPE-1 cells expressing GFP–Polθ; test: siRNA screen for ionizing radiation-induced Polθ foci formation; assay type: cell-based, human; conditions: 10 nM siRNA, 72 h, then 5 Gy, 2 h; cells with at least 5 Polθ foci; median RZ score of the three siRNAs, three replicate experiments
Description: (§1) The Human DDR siRNA library comprising 1,746 single siRNAs representing 582 human genes (3 siRNAs per gene) was obtained from ThermoFisher Scientific (A30089). For controls, siRNAs targeting GL2, kinesin family member 11 (KIF11) and GM130 were used to assess transfection efficacy and induced cell toxicity. FANCD2 siRNA ([…]dT, defined as FANCD2-ctrl in Supplementary Table 1) was used as a positive control inhibiting Polθ foci formation. RPE-1 cells expressing GFP–Polθ (250 cells per well in 384-well plates) were grown overnight. siRNAs were incubated 15 min with 0.05 μl Interferin reagent (Polyplus transfection) and Opti-MEM (ThermoFisher Scientific) prior to being transferred into each 384-well plate wells, to obtain a 10 nM final concentration. Cells were irradiated 72 h after transfection, at a dose of 5 Gy (226 s) with the CIXD irradiator (RadeXp platform, Institut Curie) and incubated at 37 °C, 5% CO2 for 2 h. […] Polθ was then identified as organelles in the nuclei area and quantified by the average intensity of pixels within the defined organelles region. […] Corrected values were normalized as follows: sample median and median absolute deviation (MAD) were calculated from the Interferin-treated population of each internal plate data points (named as Ref pop) and used to compute robust Z-scores[59] […]

[2] = test system: RPE-1 cells expressing GFP–Polθ; test: siRNA screen, cell count; assay type: cell-based, human
Description: as §1

GGAGAUUGAUGGUCUACUATdT (GGAGAUUGAUGGUCUACUATT; chemistry not given here) [fancd2-ctrl]
Robust z score_corrected_Cells multi-foci_MultiFoci (%) [1]: -7.14
Toxicity threshold [2]: Toxic
